Experimental data as given in ChEMBL document CHEMBL1201862, “PubChem BioAssay data set” (2004).
Activity calls are given as the source filed them.

How the values were obtained:
[1] = molecular target: T1, Calpain-2 catalytic subunit (Sus scrofa, UniProt P43367); test: pig calpain II inhibitor potency, dose response, biochemical, fluorogenic peptide substrate (AID 1420); type: functional
T1 sequence (P43367 whole entry): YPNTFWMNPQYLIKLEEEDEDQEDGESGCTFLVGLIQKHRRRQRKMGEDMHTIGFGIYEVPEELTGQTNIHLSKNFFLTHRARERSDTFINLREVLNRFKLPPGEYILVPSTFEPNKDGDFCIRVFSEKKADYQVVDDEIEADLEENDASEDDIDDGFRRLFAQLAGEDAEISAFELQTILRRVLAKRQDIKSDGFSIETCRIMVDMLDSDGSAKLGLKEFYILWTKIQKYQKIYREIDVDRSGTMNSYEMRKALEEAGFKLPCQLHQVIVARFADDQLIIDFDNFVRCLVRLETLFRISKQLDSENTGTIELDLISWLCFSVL

[2] = molecular target: T2, DNA repair protein RAD52 homolog (Homo sapiens, UniProt P43351); type: functional, biochemical
T2 sequence (P43351 whole entry): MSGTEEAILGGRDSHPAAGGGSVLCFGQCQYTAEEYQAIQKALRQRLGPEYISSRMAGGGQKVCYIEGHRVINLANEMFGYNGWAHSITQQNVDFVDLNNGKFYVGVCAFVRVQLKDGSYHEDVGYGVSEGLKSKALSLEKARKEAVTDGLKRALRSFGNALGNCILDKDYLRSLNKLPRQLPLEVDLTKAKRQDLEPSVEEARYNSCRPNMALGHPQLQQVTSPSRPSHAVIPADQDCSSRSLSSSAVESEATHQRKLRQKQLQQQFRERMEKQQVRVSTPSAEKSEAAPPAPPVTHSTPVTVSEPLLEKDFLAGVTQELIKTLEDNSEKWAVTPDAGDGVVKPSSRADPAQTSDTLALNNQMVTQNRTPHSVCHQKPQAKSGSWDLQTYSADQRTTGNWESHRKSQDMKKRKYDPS

[3] = molecular target: T3, Zinc finger protein mex-5 (Caenorhabditis elegans, UniProt Q9XUB2); test: MEX-5/TCR-2 RNA interaction inhibitors, dose response, biochemical, C. elegans, fluorescence polarization (AID 1960)
T3 sequence (Q9XUB2 whole entry): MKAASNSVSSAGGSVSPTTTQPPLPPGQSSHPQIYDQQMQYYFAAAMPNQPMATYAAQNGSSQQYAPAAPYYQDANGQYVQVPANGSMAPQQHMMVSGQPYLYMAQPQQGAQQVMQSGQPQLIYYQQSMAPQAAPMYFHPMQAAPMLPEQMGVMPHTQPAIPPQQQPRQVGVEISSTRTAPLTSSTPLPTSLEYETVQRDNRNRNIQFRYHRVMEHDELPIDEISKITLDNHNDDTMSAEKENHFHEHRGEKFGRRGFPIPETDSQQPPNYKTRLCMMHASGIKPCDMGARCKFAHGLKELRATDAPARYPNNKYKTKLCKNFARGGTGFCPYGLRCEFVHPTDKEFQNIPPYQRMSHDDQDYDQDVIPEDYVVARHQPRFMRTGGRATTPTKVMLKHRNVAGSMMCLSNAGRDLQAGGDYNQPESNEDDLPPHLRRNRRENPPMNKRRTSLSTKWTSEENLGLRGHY

[4] = molecular target: T4, RNA-binding protein pos-1 (Caenorhabditis elegans, UniProt G5EF15); test: inhibitors of POS-1/mex-3 RNA binding, dose response, biochemical, fluorescence polarization (AID 1964);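 further: purified POS-1 fused to maltose binding protein made in E. coli; potency of compounds blocking POS-1 binding to fluorescent RNA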
T4 sequence (G5EF15 whole entry): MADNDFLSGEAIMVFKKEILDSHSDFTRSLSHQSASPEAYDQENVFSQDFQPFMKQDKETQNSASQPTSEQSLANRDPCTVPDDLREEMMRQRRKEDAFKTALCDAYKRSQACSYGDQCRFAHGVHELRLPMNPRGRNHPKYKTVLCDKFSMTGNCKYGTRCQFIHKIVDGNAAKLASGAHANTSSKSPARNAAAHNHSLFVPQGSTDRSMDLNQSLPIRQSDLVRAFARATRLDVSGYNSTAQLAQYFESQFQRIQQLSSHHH

[5] = inhibitors of clade B AD8 Env fusion, dose response, cell-based, cherry-pick (AID 652062); type: functional;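 further: luciferase signal from cell-cell fusion driven by HIV-1 clade B AD8 Env; potency is for inhibitors of fusion seen as a drop in luminescence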
[6] = off-target signal loss in HeLa-CEM21 co-culture – HeLa F-luc CTL cells, cherry-picked, counter-screen for HIV-1 Env fusion inhibitor project, dose response (AID 652040); type: functional, cell-based;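 further: potency for signal decrease marking cytotoxic or nonspecific inhibition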
[7] = P. falciparum Dd2 growth inhibitors, dose response, SYBR Green, dry powder samples (AID 1159566); type: functional, cell-based;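 further: potency for growth inhibition with lower SYBR green DNA signal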
[8] = P. falciparum ATP4 D1247Y mutant growth inhibitors, dose response, NITD609-resistant line, SYBR Green, dry powder (AID 1159571); type: functional, cell-based;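 further: parasites synchronized at ring stage by sorbitol before testing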
[9] = P. falciparum 3D7-ScDHODH growth inhibitors, dose response, SYBR Green, dry powder samples (AID 1159570); type: functional, cell-based;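 further: parasite growth measured after 72 hours of compound exposure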
H9c2 = test: cells; type: functional, cell-based; conditions: Rattus norvegicus, H9c2, Myocardium
[10] = P. falciparum Dd2 growth inhibitors, dose response, SYBR Green, cherry-picked samples (AID 1159567); type: functional, cell-based
[11] = inhibitors of HIV Env-driven cell fusion, dose response, cherry-pick (AID 652057); type: functional, cell-based
[12] = ZM109 Env clade C HIV-1 fusion inhibitors, dose response, HeLa effector, CEM target cells, luciferase, cherry-pick (AID 652058); type: functional, cell-based
[13] = molecular target: Induced myeloid leukemia cell differentiation protein Mcl-1 (Homo sapiens, UniProt Q07820); type: functional
[14] = system: Streptococcus sp. 'group A'; test: growth inhibition of control SK(-) GAS strain, dose response, counter-screen for streptokinase expression inhibitor project, luminescence, kanamycin, BacTiterGlo, confirmation (AID 1900); type: functional, organism-based
Streptococcus = test: Group A Streptococcus viability loss, dose response, counter-screen for streptokinase expression inhibitor project, luminescence, BacTiterGlo (AID 1915); type: functional, organism-based;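 further: potency for reduction of bacterial viability or growth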
[15] = molecular target: T5, Ubiquitin-conjugating enzyme E2 N (Homo sapiens, UniProt P61088); type: functional;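 further: Dose-response confirmation in a TR-FRET assay detecting UBC13-driven polyubiquitin chain formation, inhibition measured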
T5 sequence (P61088 whole entry): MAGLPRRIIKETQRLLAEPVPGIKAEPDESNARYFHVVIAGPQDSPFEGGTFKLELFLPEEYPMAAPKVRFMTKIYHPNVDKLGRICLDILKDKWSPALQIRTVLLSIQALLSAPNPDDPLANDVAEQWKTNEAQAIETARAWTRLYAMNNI

[16] = intracellular Trypanosoma cruzi inhibitors in host cells – cell-based, plate reader, cherry-pick samples, set 3, dose response (AID 651818); type: functional;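 further: compounds incubated with infected cells for about four days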
[17] = molecular target: T6, Corticotropin-releasing factor receptor 2/Corticotropin-releasing factor-binding protein (Homo sapiens, UniProt P24387+Q13324); test: Dose Response confirmation of uHTS hits for small molecule antagonists of the CRF-binding protein and CRF-R2 receptor complex.; type: functional; conditions: read-out: IC50_Mean
T6 sequence (Q13324 whole entry): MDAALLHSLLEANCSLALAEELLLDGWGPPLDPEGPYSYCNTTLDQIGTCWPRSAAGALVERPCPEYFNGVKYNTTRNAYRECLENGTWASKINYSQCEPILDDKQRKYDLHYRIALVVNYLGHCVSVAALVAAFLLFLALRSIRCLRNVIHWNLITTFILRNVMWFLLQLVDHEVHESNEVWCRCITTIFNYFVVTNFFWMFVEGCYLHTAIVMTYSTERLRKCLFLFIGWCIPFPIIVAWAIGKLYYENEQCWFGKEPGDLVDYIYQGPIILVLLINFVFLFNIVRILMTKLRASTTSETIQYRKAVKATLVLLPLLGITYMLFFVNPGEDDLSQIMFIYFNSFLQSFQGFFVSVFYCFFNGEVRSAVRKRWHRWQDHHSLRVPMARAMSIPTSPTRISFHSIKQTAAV
T6 sequence (P24387 whole entry): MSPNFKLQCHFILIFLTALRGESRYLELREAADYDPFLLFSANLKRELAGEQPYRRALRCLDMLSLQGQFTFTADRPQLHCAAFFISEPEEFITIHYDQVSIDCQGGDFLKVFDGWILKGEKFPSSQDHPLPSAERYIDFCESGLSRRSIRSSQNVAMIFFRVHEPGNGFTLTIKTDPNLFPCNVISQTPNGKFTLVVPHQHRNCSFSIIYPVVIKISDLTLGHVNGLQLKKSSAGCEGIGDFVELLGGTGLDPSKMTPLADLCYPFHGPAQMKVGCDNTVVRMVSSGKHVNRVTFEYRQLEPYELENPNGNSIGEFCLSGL

[18] = molecular target: T6, Corticotropin-releasing factor receptor 2/Corticotropin-releasing factor-binding protein; test: activators of CRF receptor 2 with binding protein – uHTS hits, confirmation (AID 602473); type: functional; conditions: read-out: EC50_Mean

Chain of Induced myeloid leukemia cell differentiation protein Mcl-1 (Q07820 whole entry): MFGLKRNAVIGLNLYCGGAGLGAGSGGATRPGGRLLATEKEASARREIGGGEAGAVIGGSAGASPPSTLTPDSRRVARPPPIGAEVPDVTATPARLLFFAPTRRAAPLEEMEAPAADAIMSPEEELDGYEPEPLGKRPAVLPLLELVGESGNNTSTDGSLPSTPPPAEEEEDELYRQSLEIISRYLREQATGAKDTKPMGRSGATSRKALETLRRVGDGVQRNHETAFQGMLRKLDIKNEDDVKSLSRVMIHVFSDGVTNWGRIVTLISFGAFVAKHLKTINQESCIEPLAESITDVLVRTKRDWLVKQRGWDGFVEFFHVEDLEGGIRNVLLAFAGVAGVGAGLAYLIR

## CC(C)/N=C(\S)NN=C1CCCCCCCCCCC1
[1]
  IC50: 1.04 µM (not active)

## CCN(CC)CCN(C(=O)c1ccc(N2C(=O)CCC2=O)cc1)c1nc2cc3c(cc2s1)OCCO3
[2]
  AC50: 21.9 µM (active)

## CCn1c(C)nc2cc(N)ccc21
[2]
  AC50: 5.49 µM (active)
[3]
  EC50: 4.59 µM (active)
[4]
  EC50: 261 µM (active)

## O=C(OCC(=O)N1c2ccccc2Sc2ccccc21)c1ccc[n+]([O-])c1
[1]
  IC50: 1.66 µM (not active)

## O=C1c2cccc3cccc(c23)C(=O)N1CCN1CCN(C(=S)Nc2ccc(Cl)cc2)CC1
[1]
  IC50: 22.7 µM (not active)

## Cc1cccc(Oc2ccc(Cl)cc2N)c1
[1]
  IC50: > 50 µM (not active)

## OCC[C@@H]1C[C@@H](O)[C@H](O)[C@]2(OCc3ccccc32)O1
[5]
  AC50: 27.2 µM (active)
[6]
  AC50: 28.2 µM (active)

## C[C@@H]1CN([C@H](C)CO)S(=O)(=O)c2ccc(C#Cc3ccccc3F)cc2O[C@H]1CN(C)C(=O)c1ccc2c(c1)OCO2
[7]
  AC50: 1.18 µM (active)
[8]
  AC50: 0.925 µM (active)
[9]
  AC50: 1.61 µM (active)
H9c2
  IC50: > 79 µM (inactive)
[10]
  AC50: 1.6 µM (active)

## O=C(Cc1ccc(S(=O)(=O)N2CCOCC2)s1)N1CCN(S(=O)(=O)c2ccc(Cl)cc2)CC1
[11]
  AC50: 7.03 µM (active)
[5]
  AC50: 28.2 µM (active)
[6]
  AC50: 14.1 µM (active)
[12]
  AC50: 7.93 µM (active)

## O=[N+]([O-])c1cc(Br)c(O)c(/C=N/Nc2nc3ccccc3s2)c1
[13]
  IC50: > 54 µM (active)
[14]
  EC50: 1.59 µM (active)
Streptococcus
  EC50: 1.69 µM (active)

## COc1ccccc1NS(=O)(=O)c1cccc(C(=O)N/N=C/c2c(CO)cnc(C)c2O)c1
[15]
  IC50: > 20 µM (inactive)
H9c2
  IC50: > 79 µM (inactive)

## C[C@H](CO)N1C[C@H](C)[C@H](CN(C)C(=O)Nc2ccc(F)cc2)Oc2c(NC(=O)c3ccncc3)cccc2C1=O
[16]
  AC50: 2.08 µM (active)

## Cc1ccc(S(=O)(=O)Nc2ccc3c(c2)C(=O)N([C@H](C)CO)C[C@H](C)[C@@H](CN(C)C(=O)Nc2ccc(C(F)(F)F)cc2)OCCCC[C@@H](C)O3)cc1
[16]
  AC50: 4.82 µM (active)

## Cc1ccc(S(=O)(=O)N(C)C[C@H]2Oc3c(NC(=O)c4nc5ccccc5s4)cccc3C(=O)N([C@@H](C)CO)C[C@@H]2C)cc1
[16]
  AC50: 1.09 µM (active)

## C[C@@H]1CN([C@@H](C)CO)C(=O)c2cccc(NC(=O)Nc3ccc(F)cc3)c2O[C@@H]1CN(C)Cc1ccc(C(=O)Nc2ccccc2N)cc1
[16]
  AC50: 3.68 µM (active)

## C[C@@H]1CN([C@H](C)CO)C(=O)Cc2cc(NS(=O)(=O)c3ccc(F)cc3)ccc2O[C@@H]1CN(C)Cc1ccc(-c2ccccc2)cc1
[16]
  AC50: 3.2 µM (active)

## C[C@@H]1CN([C@@H](C)CO)C(=O)c2cccc(NS(=O)(=O)c3ccc(Cl)cc3)c2O[C@H]1CN(C)Cc1ccc(C(=O)Nc2ccccc2N)cc1
[16]
  AC50: 2.53 µM (active)

## CC1CCN(C(=O)c2ncn3c2C(=O)N[C@@H](C)C3)CC1
[11]
  AC50: 1.94 µM (active)
[5]
  AC50: 9.91 µM (active)
[6]
  AC50: 7.15 µM (active)
[12]
  AC50: 9.53 µM (active)

## O=C(N/N=C/c1ccccn1)c1cccs1
[17]
  IC50: > 47.1 µM (inactive)
H9c2
  IC50: > 79 µM (inactive)
[18]
  EC50: > 53 µM (inactive)

## CCN(CC)CCN(C(=O)c1ccc2c(c1)CCCC2)c1nc2c(OC)cccc2s1
[2]
  AC50: 24.3 µM (active)

## O=C(Nc1ccccc1)N1CCCCN2[C@H](CO)[C@H](c3ccc(C#Cc4cccnc4)cc3)[C@@H]2C1
[7]
  AC50: 0.165 µM (active)
[8]
  AC50: 0.157 µM (active)
[9]
  AC50: 0.15 µM (active)
[10]
  AC50: 0.676 µM (active)

## C[C@H](CO)N1C[C@H](C)[C@@H](CN(C)C(=O)Nc2cccc3ccccc23)Oc2ccc(NC(=O)Cc3cn(C)c4ccccc34)cc2C1=O
[7]
  AC50: 1.38 µM (active)
[8]
  AC50: 1.56 µM (active)
[9]
  AC50: 2.16 µM (active)
[10]
  AC50: 2.34 µM (active)

## C[C@@H]1CN([C@@H](C)CO)C(=O)c2cccc(NC(=O)Nc3ccccc3)c2O[C@@H]1CN(C)C(=O)Nc1ccc(F)cc1
[7]
  AC50: 0.35 µM (active)
[8]
  AC50: 0.372 µM (active)
[9]
  AC50: 0.65 µM (active)
[10]
  AC50: 0.392 µM (active)

## COc1cc2c3cc1Oc1c(OC)c(OC)cc4c1[C@H](Cc1ccc(cc1)Oc1cc(ccc1O)C[C@H]3N(C)CC2)N(C)CC4 [AROMOLINE]
[2]
  AC50: 9.29 µM (active)
